According to publication PMC11694444 (RSC Advances, 2025):
Read-outs that look alike come from different tables or passages of the source.

Assays:
Assay type in all cases: biochemical
BChE (EC 3.1.1.8) = BChE (EC 3.1.1.8) (Homo sapiens, UniProt P06276); assay: In vitro BChE inhibition assay
MAO-A = target: T1, MAO-A (Homo sapiens, UniProt P21397); assay: In vitro MAO-A inhibition assay
T1 sequence (P21397 1-527): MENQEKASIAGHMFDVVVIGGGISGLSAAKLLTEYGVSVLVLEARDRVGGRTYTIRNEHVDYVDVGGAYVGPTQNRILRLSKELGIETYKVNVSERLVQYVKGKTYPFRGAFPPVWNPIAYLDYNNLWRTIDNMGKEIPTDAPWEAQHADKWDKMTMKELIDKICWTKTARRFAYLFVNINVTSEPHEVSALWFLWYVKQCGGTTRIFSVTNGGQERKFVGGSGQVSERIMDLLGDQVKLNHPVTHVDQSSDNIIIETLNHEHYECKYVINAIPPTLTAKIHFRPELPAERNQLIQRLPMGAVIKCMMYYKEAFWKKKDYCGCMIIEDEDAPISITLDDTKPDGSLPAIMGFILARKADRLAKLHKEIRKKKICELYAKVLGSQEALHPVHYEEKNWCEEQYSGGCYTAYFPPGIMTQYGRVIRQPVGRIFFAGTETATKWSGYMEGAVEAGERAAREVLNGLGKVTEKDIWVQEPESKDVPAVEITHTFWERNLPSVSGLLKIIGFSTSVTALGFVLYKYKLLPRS

[1] = target: AChE (EC Number: 3.1.1.7.) (Homo sapiens, UniProt P22303); assay: In vitro AChE inhibition assay
MAO-B = target: T2, MAO-B (Homo sapiens, UniProt P27338); assay: In vitro MAO-B inhibition assay
T2 sequence (P27338 1-520): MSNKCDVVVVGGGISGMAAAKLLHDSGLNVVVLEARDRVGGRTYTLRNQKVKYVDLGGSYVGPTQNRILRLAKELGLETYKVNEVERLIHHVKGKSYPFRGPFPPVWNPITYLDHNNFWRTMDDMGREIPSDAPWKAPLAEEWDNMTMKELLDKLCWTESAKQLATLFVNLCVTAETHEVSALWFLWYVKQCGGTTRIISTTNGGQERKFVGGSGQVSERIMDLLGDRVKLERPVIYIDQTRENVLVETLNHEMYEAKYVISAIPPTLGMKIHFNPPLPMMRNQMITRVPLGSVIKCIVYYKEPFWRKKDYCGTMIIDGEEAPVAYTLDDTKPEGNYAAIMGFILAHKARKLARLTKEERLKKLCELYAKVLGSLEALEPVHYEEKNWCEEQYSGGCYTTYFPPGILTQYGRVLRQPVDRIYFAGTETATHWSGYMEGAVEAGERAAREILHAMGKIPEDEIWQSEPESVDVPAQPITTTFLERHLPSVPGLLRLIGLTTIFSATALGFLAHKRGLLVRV

[2] = target: T3, Cyclooxygenase (COX-2) from human recombinant (Homo sapiens, UniProt P35354); assay: biochemical
T3 sequence (P35354 18-604): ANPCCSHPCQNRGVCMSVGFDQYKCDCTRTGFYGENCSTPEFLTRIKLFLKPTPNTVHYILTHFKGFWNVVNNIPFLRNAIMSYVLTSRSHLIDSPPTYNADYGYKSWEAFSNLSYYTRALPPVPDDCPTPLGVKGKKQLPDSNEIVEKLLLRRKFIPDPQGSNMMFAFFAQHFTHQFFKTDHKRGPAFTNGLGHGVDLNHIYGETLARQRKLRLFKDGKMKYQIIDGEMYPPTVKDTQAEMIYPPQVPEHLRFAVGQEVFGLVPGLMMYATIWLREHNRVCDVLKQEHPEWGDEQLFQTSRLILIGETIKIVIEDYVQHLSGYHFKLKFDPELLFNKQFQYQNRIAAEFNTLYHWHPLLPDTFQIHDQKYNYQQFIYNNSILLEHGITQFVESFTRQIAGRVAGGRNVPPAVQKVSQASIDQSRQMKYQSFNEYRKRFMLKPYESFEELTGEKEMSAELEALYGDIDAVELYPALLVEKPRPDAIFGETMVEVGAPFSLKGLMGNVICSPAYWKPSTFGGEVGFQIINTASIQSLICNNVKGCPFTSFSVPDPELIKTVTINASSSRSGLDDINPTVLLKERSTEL

5-lipoxygenase (5-LOX) = assay: 5-Lipoxygenase inhibitory assay; conditions: read-out: IC50 (μM) ± SEM 5-LOX
[3] = read-out: IC50 (μM) ± SEM BChE, ± SEM
[4] = read-out: IC50 (μM) ± SEM MAO-A, ± SEM

Sequence of BChE (EC 3.1.1.8) (P06276 29-602, species assumed): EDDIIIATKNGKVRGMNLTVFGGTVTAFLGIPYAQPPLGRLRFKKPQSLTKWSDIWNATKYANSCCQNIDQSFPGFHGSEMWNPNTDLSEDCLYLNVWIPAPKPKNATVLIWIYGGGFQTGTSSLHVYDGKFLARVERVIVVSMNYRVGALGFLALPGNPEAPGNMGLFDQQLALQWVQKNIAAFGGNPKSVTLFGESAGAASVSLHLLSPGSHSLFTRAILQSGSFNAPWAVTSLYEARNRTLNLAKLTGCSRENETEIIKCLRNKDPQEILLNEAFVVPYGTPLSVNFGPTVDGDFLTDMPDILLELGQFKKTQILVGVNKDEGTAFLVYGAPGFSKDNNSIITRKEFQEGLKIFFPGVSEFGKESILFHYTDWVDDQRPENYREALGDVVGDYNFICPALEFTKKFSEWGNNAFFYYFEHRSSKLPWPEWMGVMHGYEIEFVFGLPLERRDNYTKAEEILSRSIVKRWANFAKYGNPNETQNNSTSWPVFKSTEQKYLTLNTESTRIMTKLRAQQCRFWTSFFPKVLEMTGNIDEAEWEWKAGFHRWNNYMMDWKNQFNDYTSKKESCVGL
Sequence of AChE (EC Number: 3.1.1.7.) (P22303 32-614): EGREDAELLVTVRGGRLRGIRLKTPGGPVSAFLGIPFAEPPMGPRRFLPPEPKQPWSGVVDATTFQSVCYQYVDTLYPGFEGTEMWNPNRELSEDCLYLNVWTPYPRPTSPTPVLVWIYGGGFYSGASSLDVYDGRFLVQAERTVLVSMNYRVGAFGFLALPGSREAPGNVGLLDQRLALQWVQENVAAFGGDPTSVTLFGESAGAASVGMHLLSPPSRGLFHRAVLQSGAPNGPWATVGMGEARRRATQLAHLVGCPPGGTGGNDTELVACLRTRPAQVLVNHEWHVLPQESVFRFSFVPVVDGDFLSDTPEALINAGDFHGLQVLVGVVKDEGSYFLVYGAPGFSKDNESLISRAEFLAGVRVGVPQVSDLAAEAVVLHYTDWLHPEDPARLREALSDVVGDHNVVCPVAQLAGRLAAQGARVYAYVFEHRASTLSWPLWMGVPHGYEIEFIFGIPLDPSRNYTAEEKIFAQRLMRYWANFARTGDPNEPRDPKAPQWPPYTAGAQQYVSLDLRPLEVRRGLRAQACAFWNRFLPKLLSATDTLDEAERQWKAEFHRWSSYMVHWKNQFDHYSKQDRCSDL

Compound	IC50 (BChE (EC 3.1.1.8); [3])	IC50 (MAO-A; [4])	activity against BChE, in words (BChE (EC 3.1.1.8))	IC50 [1]	inhibition of AChE, in words [1]	IC50 (BChE (EC 3.1.1.8))	IC50 (MAO-A)	IC50 (MAO-B)	IC50 [2]	activity against COX-2, in words [2]	IC50 (5-lipoxygenase (5-LOX))
2,2′-(1-(4-(6-(2,4-Dichlorophenyl)-1,8a-dihydro-7H-[1,2,4]triazolo[3,4-b][1,3,4]thiadiazin-3-yl)phenyl)-1H-1,2,4-triazole-3,5-diyl)diphenol [Compound 25]	1.09 ± 0.11 µM	0.81 ± 0.02 µM	–	–	–	–	–	–	–	–	–
3-(3-(4-(3,5-Bis(2-hydroxyphenyl)-1H-1,2,4-triazol-1-yl)phenyl)-1,8a-dihydro-7H-[1,2,4]triazolo[3,4-b][1,3,4]thiadiazin-6-yl)-3,10a-dihydro-2H-benzo[g]chromen-2-one [Compound 22]	10.8 ± 0.97 µM	0.61 ± 0.07 µM	–	–	–	–	–	–	–	–	–
3-(3-(4-(3,5-Bis(2-hydroxyphenyl)-1H-1,2,4-triazol-1-yl)phenyl)-1,8a-dihydro-7H-[1,2,4]triazolo[3,4-b][1,3,4]thiadiazin-6-yl)-7-bromo-3,8a-dihydro-2H-chromen-2-one [Compound 23]	14 ± 1.11 µM	1.32 ± 0.11 µM	excellent to moderate activity	–	–	–	–	–	–	–	–
O=C(O)c1ccc(-n2nc(-c3ccccc3O)nc2-c2ccccc2O)cc1 [Compound 9, deferasirox, reference compound]	–	–	excellent to moderate activity	0.43 ± 0.05 µM	significant inhibition	0.11 ± 0.005 µM	10 ± 1.78 µM	0.18 ± 0.01 µM	4.93 ± 0.38 µM	good to moderate activity	1.28 ± 0.13 µM
Oc1ccccc1-c1nc(-c2ccccc2O)n(-c2ccc(-c3nnc4n3N=C(c3ccc(Cl)cc3)CS4)cc2)n1 [Compound 15, 2,2′-(1-(4-(6-(4-Chlorophenyl)-7H-[1,2,4]triazolo[3,4-b][1,3,4]thiadiazin-3-yl)phenyl)-1H-1,2,4-triazole-3,5-diyl)diphenol]	–	–	–	–	–	3.96 ± 0.22 µM	3.58 ± 0.56 µM	–	75.3 ± 3.56 µM	good to moderate activity	–
